Where two headings read alike, the source gives them in different places.
What was measured:
[1] = target: T1, HIV-1 protease (wild-type, WT) (Human immunodeficiency virus type 1 group M subtype B, UniProt P04585); test: Inhibition of purified wild-type HIV-1 protease (fluorogenic substrate cleavage), Ki and % inhibition; assay type: biochemical
T1 construct: purified HIV-1 protease (wild-type, WT)
Procedure: (§1) The inhibition constants (Ki) for the compounds of the above examples were determined using purified HIV-1 protease (wild-type, WT) (Tables I, II, IV and V) and R8Q and V82I mutant HIV-1 proteases (Table III). Ki is an inhibition constant of a given compound as derived by enzyme kinetics. A low Ki represents a high affinity of the compound for the enzyme, i.e., tight binding or low dissociation. Inhibition of the cleavage was assayed using a fluorogenic substrate available from Molecular Probes, Inc., Eugene, Oreg., and described in Kageyama et al., Antimicrob. Agents. Chemother., 37, 272 (1993), and a fluorogenic substrate available from Bachem California, Torrance, Calif., and described in Kageyama et al. (1993), supra. The inhibitory potencies of these compounds are set forth in Tables I-V. Percent inhibition is the percentage inhibition of an enzyme's activity by a given compound at a given concentration.

viral activity = details: cited from earlier work
[2] = target: T2, V82I mutant HIV-1 protease (Human immunodeficiency virus type 1 group M subtype B, UniProt P04585, V570I); test: Inhibition of V82I mutant HIV-1 protease (fluorogenic substrate cleavage); assay type: biochemical; details: Table III
T2 construct: R8Q and V82I mutant HIV-1 proteases
Procedure: as §1

[3] = target: T3, R8Q mutant HIV-1 protease (Human immunodeficiency virus type 1 group M subtype B, UniProt P04585, R496Q); test: Inhibition of R8Q mutant HIV-1 protease (fluorogenic substrate cleavage); assay type: biochemical; details: Table III
T3 construct: R8Q and V82I mutant HIV-1 proteases
Procedure: as §1

[4] = Table V, spread wrapped on the next line: DN-1 ± 0.6, DN-4 ± 0.09, DN-5 ± 1.3, DN-6B ± 0.3, DN-10 ± 0.007, DN-11 ± 0.1, read-out: Ki
[5] = Table III, wild-type HIV protease, read-out: Ki WT

Work on `O=C(Nc1c(O)cccc1C(=O)N[C@@H](Cc1ccccc1)[C@H](O)[C@H](O)[C@H](Cc1ccccc1)NC(=O)c1cccc(O)c1NC(=O)OCc1ccccc1)OCc1ccccc1` [Compound 33] yielded a Ki ([1]; Table IV, read-out: Ki) of 20 nM.

For `COCCOCCOc1cccc(C(=O)N[C@@H](Cc2ccccc2)[C@H](O)[C@H](O)[C@H](Cc2ccccc2)NC(=O)c2cccc(OCCOCCOC)c2)c1` [Compound 18], the inhibition at 10 µM ([1]; read-out: % inhib) was 63%.

For `O=C(Cc1ccccc1)N[C@@H](Cc1ccccc1)[C@H](O)[C@H](O)[C@H](Cc1ccccc1)NC(=O)Cc1ccccc1` [Compound 5], the “inhibition of HIV PR (in words)” value [1] was “weak inhibitor of HIV PR” and the inhibition at 10 µM ([1]; read-out: % inhib) was 38%.

`O=C(Nc1ccccc1C(=O)N[C@@H](Cc1ccccc1)[C@H](O)[C@H](O)[C@H](Cc1ccccc1)NC(=O)c1cccc(O)c1)OCc1ccccn1` [DN-4] gave a Ki [1, 4] of 1.7 nM.

For `CC(C)[C@H](NC(=O)N(C)Cc1ccccn1)C(=O)N[C@@H](Cc1ccccc1)[C@H](O)[C@H](O)[C@H](Cc1ccccc1)NC(=O)[C@@H](NC(=O)N(C)Cc1ccccn1)C(C)C` [Compound A77003], the EC50 (viral activity; comparison compound in clinical trials, no unit printed (Ho et al.)) is given as 200 nM.

In the case of `Nc1ccc(C(=O)N[C@@H](Cc2ccccc2)[C@@H](O)[C@@H](O)[C@H](Cc2ccccc2)NC(=O)c2ccccc2NC(=O)OCc2ccccn2)cc1` [DN-6B], the Ki [1, 4] is reported as 6.6 nM.

For `Cc1cccc(C(=O)N[C@@H](Cc2ccccc2)[C@H](O)[C@H](O)[C@H](Cc2ccccc2)NC(=O)c2cccc(C)c2NC(=O)OCc2ccccc2)c1NC(=O)OCc1ccccc1` [Compound 31], the Ki ([1]; Table IV, read-out: Ki) was 12 nM.

`O=C(N[C@@H](Cc1ccccc1)[C@H](O)[C@H](O)[C@H](Cc1ccccc1)NC(=O)c1cccc([N+](=O)[O-])c1)c1cccc([N+](=O)[O-])c1` [Compound 22] gave an inhibition at 10 µM ([1]; read-out: % inhib) of 40%.

With `O=C(N[C@@H](Cc1ccccc1)C[C@H](O)[C@H](Cc1ccccc1)NC(=O)c1cccc(O)c1)c1cccc(O)c1` [Compound 24] the “inhibition of HIV PR (in words)” value [1] was “did not improve the inhibitory potencies”, the Ki ([1]; Table II, read-out: Ki) was 25 nM and the Ki [1, 5] was 25 nM. It also gave a Ki [2] of 96 nM and a Ki [3] of 34 nM.

With `O=C(NC(Cc1ccccc1)C(O)C(O)C(Cc1ccccc1)NC(=O)c1cccc(O)c1)c1cccc(O)c1` (stereo not shown) [Compound 9] the Ki ([1]; Table II, read-out: Ki) was 43 nM.

For `CC(C)c1nc(CN(C)C(=O)N[C@H](C(=O)N[C@@H](Cc2ccccc2)C[C@H](O)[C@H](Cc2ccccc2)NC(=O)OCc2cncs2)C(C)C)cs1` [ABT538], the EC50 (viral activity; comparison compounds in clinical trials) is given as 36 nM.

In the case of `O=C(Nc1ccccc1C(=O)N[C@@H](Cc1ccccc1)[C@@H](O)[C@@H](O)[C@H](Cc1ccccc1)NC(=O)c1cccc(O)c1)OCc1ccccn1` [ND-4], the Ki [1, 4] is reported as 0.7 nM.

For `Nc1cccc(C(=O)N[C@@H](Cc2ccccc2)[C@H](O)[C@H](O)[C@H](Cc2ccccc2)NC(=O)c2cccc(N)c2)c1` [Compound 17], the “inhibition of HIV PR (in words)” value [1] was “potent inhibitors of HIV PR”, the Ki ([1]; Table II, read-out: Ki) was 5 nM and the Ki [1, 5] was 5 nM. For the same compound, the Ki ([1]; read-out: Ki) was 5 nM, the Ki [2] was 109 nM and the Ki [3] was 20 nM.

In the case of `O=C(Cc1ccccc1O)N[C@@H](Cc1ccccc1)[C@H](O)[C@H](O)[C@H](Cc1ccccc1)NC(=O)Cc1ccccc1O` [Compound 5b], the “inhibition of HIV PR (in words)” value [1] is reported as “small improvements in inhibition of HIV PR” and the inhibition at 10 µM ([1]; read-out: % inhib) is reported as 66%.

Work on `O=C(N[C@@H](Cc1ccccc1)[C@H](O)[C@H](O)[C@H](Cc1ccccc1)NC(=O)c1cccc(O)c1)OCc1ccccc1` [DN-1] yielded a Ki [1, 4] of 11.9 nM.

`O=C(Nc1ccccc1C(=O)N[C@@H](Cc1ccccc1)C[C@H](O)[C@H](Cc1ccccc1)NC(=O)c1ccccc1NC(=O)OCc1ccccc1)OCc1ccccc1` [Compound 35] gave a Ki ([1]; Table IV, read-out: Ki) of 1.2 nM.

Compound `CC(=O)Nc1ccccc1C(=O)N[C@@H](Cc1ccccc1)[C@H](O)[C@H](O)[C@H](Cc1ccccc1)NC(=O)c1ccccc1NC(C)=O` [Compound 26] has a Ki ([1]; Table IV, read-out: Ki) of 41 nM and a Ki ([1]; read-out: Ki) of 41 nM.

Work on `O=C(CO)Nc1ccccc1C(=O)N[C@@H](Cc1ccccc1)[C@H](O)[C@H](O)[C@H](Cc1ccccc1)NC(=O)c1ccccc1NC(=O)CO` [Compound 29] yielded a Ki ([1]; Table IV, read-out: Ki) of 41 nM.

Work on `O=C(N[C@@H](Cc1ccccc1)[C@@H](O)[C@H](O)[C@H](Cc1ccccc1)NC(=O)c1cccnc1)c1cccnc1` [Compound 23] yielded a Ki ([1]; Table II, read-out: Ki) of 400 nM.

In the case of `CC(C)(C)OC(=O)Nc1ccc(C(=O)N[C@@H](Cc2ccccc2)[C@@H](O)[C@@H](O)[C@H](Cc2ccccc2)NC(=O)OCc2ccccc2)cc1` [DN-5], the Ki [1, 4] is reported as 15.8 nM.

With `O=C(N[C@@H](Cc1ccccc1)[C@H](O)[C@H](O)[C@H](Cc1ccccc1)NC(=O)c1cc(=O)c2ccccc2o1)c1cc(=O)c2ccccc2o1` [Compound 20] the “inhibition of HIV PR (in words)” value [1] was “diminished binding” and the inhibition at 10 µM ([1]; read-out: % inhib) was 67%.

In the case of `O=C(N[C@@H](Cc1ccccc1)[C@H](O)[C@H](O)[C@H](Cc1ccccc1)NC(=O)c1cc(O)c2ccccc2n1)c1cc(O)c2ccccc2n1` [Compound 21], the “inhibition of HIV PR (in words)” value [1] is reported as “diminished binding” and the inhibition at 10 µM ([1]; read-out: % inhib) is reported as 31%.

Work on `Cc1ccc(O)cc1C(=O)N[C@@H](Cc1ccccc1)[C@H](O)[C@H](O)[C@H](Cc1ccccc1)NC(=O)c1cc(O)ccc1C` [Compound 15] yielded a Ki ([1]; Table II, read-out: Ki) of 75 nM, a Ki [1, 5] of 75 nM and a Ki ([1]; read-out: Ki) of 75 nM. The Ki [2] was 54 nM and the Ki [3] was 89 nM.

With `O=C(N[C@@H](Cc1ccccc1)[C@@H](O)[C@H](O)[C@H](Cc1ccccc1)NC(=O)c1ccccc1O)c1ccccc1O` [Compound 11] the “inhibition of HIV PR (in words)” value [1] was “dramatic loss in enzyme inhibitory potency”, the inhibition at 10 µM ([1]; at 10 μM, read-out: % inhibition) was 66% and the inhibition at 10 µM ([1]; read-out: % inhib) was 66%.

With `O=C(N[C@@H](Cc1ccccc1)[C@H](O)[C@H](O)[C@H](Cc1ccccc1)NC(=O)c1cccc(O)c1)c1cccc(O)c1` [Compound 7, (2S,3R,4S,5S)-2,5-bis[((3-hydroxyphenyl)carbonyl)amino]-3,4-dihydroxy-1,6-diphenyl-hexane] the “inhibition of HIV PR (in words)” value [1] was “potent inhibitors of HIV PR”, the Ki ([1]; Table II, read-out: Ki) was 22 nM and the Ki [1, 5] was 22 nM. For the same compound, the “relative potency, R,S vs R,R diol core (compounds 7 and 8)” value ([1]; in general, R,S core compared with R,R core) was “three times more potent”, the Ki ([1]; read-out: Ki) was 22 nM and the Ki [2] was 51 nM. It also gave a Ki [3] of 36 nM.

With `O=C(Nc1ncccc1C(=O)N[C@@H](Cc1ccccc1)[C@H](O)[C@H](O)[C@H](Cc1ccccc1)NC(=O)c1cccnc1NC(=O)OCc1ccccc1)OCc1ccccc1` [Compound 30] the Ki ([1]; Table IV, read-out: Ki) was 3 nM.

Compound `Cc1cc(O)cc(C(=O)N[C@@H](Cc2ccccc2)[C@H](O)[C@H](O)[C@H](Cc2ccccc2)NC(=O)c2cc(C)cc(O)c2)c1` [Compound 14] has a Ki ([1]; Table II, read-out: Ki) of 1000 nM.

In the case of `O=C(Cc1cccc(O)c1)N[C@@H](Cc1ccccc1)[C@H](O)[C@H](O)[C@H](Cc1ccccc1)NC(=O)Cc1cccc(O)c1` [Compound 5a], the “inhibition of HIV PR (in words)” value [1] is reported as “small improvements in inhibition of HIV PR” and the Ki ([1]; Table I, read-out: Ki) is reported as 3000 nM.

In the case of `O=C(N[C@@H](Cc1ccccc1)[C@H](O)[C@H](O)[C@H](Cc1ccccc1)NC(=O)c1cccc(OCCOc2ccccc2)c1)c1cccc(OCCOc2ccccc2)c1` [Compound 19], the inhibition at 10 µM ([1]; read-out: % inhib) is reported as 9%.

Work on `O=C(N[C@@H](Cc1ccccc1)[C@@H](O)[C@H](O)[C@H](Cc1ccccc1)NC(=O)c1ccccc1)c1ccccc1` [Compound 6] yielded an inhibition at 10 µM ([1]; read-out: % inhib) of 55%.

With `O=C(N[C@@H](Cc1ccccc1)[C@@H](O)[C@H](O)[C@H](Cc1ccccc1)NC(=O)c1ccc(O)cc1)c1ccc(O)cc1` [Compound 10] the Ki ([1]; Table II, read-out: Ki) was 330 nM and the Ki ([1]; read-out: Ki) was 330 nM.

In the case of `CC(C)(C)OC(=O)Nc1ccc(C(=O)N[C@@H](Cc2ccccc2)[C@@H](O)[C@@H](O)[C@H](Cc2ccccc2)NC(=O)c2ccccc2NC(=O)OCc2ccccn2)cc1` [DN-6], the inhibition at 1 µM ([1]; Table V, @ 1 μM, read-out: % inhibition (printed after % Inhib. Conc.)) is reported as 15% and the “% Inhib. Conc.” value ([1]; Table V, @ 10 NM (so in the source)) is reported as 40%.

Compound `O=C(N[C@@H](Cc1ccccc1)[C@@H](O)[C@H](O)[C@H](Cc1ccccc1)NC(=O)c1cccc(O)c1)c1cccc(O)c1` [Compound 8] has a Ki ([1]; Table II, read-out: Ki) of 79 nM.

`CCOC(=O)Nc1ccccc1C(=O)N[C@@H](Cc1ccccc1)[C@H](O)[C@H](O)[C@H](Cc1ccccc1)NC(=O)c1ccccc1NC(=O)OCC` [Compound 28] showed an inhibition at 10 µM ([1]; Table IV, @ 10 μM, read-out: % inhibition) of 41%.

For `Cc1ccc(C(=O)N[C@@H](Cc2ccccc2)[C@H](O)[C@H](O)[C@H](Cc2ccccc2)NC(=O)c2ccc(C)c(O)c2)cc1O` [Compound 16], the Ki ([1]; Table II, read-out: Ki) was 132 nM.

With `Nc1cccc(C(=O)N[C@@H](Cc2ccccc2)C[C@H](O)[C@H](Cc2ccccc2)NC(=O)c2cccc(N)c2)c1` [Compound 25] the “inhibition of HIV PR (in words)” value [1] was “did not improve the inhibitory potencies” and the Ki ([1]; Table II, read-out: Ki) was 6 nM.

`CC(C)(C)OC(=O)N[C@@H](Cc1ccccc1)[C@@H](O)[C@@H](O)[C@H](Cc1ccccc1)NC(=O)OCc1ccccc1` [DN-10] showed a Ki [1, 4] of 3.09 nM.

`O=C(N[C@@H](Cc1ccccc1)[C@H](O)[C@H](O)[C@H](Cc1ccccc1)NC(=O)c1ccc(O)c(O)c1)c1ccc(O)c(O)c1` [Compound 12] gave a Ki ([1]; Table II, unit nm [sic], read-out: Ki) of 80 nM, a Ki [1, 5] of 80 nM and a Ki [2] of 235 nM. The Ki [3] was 40 nM.

Compound `O=C(Nc1c(Cl)cccc1C(=O)N[C@@H](Cc1ccccc1)[C@H](O)[C@H](O)[C@H](Cc1ccccc1)NC(=O)c1cccc(Cl)c1NC(=O)OCc1ccccc1)OCc1ccccc1` [Compound 32] has a Ki ([1]; Table IV, read-out: Ki) of 91 nM.

`O=C(N[C@@H](Cc1ccccc1)[C@H](O)[C@H](O)[C@H](Cc1ccccc1)NC(=O)c1cc(O)cc(O)c1)c1cc(O)cc(O)c1` [Compound 13] showed a Ki ([1]; Table II, read-out: Ki) of 700 nM.
